# From patent US20210087206A1, “MACROCYCLIC KINASE INHIBITORS AND THEIR USE” (TURNING POINT THERAPEUTICS, INC., priority 2017, published 2021)
# How the values were obtained:
# Test in all cases: Cell proliferation assay (CellTiter-Glo)
# Assay type in all cases: cell-based
# BaF3 EML4-ALK = molecular target: T1, BaF3 EML4-ALK (Homo sapiens, UniProt Q9UM73); details: anti-cell proliferation, 72 hours
# T1 construct: The EML4-ALK gene (variant 1) was synthesized at GenScript and cloned into pCDH-CMV-MCS-EF1-Puro plasmid (System Biosciences, Inc); fused on or other part: EML4 N-terminal part (variant 1: exons 1-13, with the coiled-coil that oligomerises the fusion) fused to the intracellular part of ALK, which contains the kinase domain; Q9HC35 (Echinoderm microtubule-associated protein-like 4)
# T1 sequence (Q9UM73 whole entry, stated change not applied, the tested form may be a part): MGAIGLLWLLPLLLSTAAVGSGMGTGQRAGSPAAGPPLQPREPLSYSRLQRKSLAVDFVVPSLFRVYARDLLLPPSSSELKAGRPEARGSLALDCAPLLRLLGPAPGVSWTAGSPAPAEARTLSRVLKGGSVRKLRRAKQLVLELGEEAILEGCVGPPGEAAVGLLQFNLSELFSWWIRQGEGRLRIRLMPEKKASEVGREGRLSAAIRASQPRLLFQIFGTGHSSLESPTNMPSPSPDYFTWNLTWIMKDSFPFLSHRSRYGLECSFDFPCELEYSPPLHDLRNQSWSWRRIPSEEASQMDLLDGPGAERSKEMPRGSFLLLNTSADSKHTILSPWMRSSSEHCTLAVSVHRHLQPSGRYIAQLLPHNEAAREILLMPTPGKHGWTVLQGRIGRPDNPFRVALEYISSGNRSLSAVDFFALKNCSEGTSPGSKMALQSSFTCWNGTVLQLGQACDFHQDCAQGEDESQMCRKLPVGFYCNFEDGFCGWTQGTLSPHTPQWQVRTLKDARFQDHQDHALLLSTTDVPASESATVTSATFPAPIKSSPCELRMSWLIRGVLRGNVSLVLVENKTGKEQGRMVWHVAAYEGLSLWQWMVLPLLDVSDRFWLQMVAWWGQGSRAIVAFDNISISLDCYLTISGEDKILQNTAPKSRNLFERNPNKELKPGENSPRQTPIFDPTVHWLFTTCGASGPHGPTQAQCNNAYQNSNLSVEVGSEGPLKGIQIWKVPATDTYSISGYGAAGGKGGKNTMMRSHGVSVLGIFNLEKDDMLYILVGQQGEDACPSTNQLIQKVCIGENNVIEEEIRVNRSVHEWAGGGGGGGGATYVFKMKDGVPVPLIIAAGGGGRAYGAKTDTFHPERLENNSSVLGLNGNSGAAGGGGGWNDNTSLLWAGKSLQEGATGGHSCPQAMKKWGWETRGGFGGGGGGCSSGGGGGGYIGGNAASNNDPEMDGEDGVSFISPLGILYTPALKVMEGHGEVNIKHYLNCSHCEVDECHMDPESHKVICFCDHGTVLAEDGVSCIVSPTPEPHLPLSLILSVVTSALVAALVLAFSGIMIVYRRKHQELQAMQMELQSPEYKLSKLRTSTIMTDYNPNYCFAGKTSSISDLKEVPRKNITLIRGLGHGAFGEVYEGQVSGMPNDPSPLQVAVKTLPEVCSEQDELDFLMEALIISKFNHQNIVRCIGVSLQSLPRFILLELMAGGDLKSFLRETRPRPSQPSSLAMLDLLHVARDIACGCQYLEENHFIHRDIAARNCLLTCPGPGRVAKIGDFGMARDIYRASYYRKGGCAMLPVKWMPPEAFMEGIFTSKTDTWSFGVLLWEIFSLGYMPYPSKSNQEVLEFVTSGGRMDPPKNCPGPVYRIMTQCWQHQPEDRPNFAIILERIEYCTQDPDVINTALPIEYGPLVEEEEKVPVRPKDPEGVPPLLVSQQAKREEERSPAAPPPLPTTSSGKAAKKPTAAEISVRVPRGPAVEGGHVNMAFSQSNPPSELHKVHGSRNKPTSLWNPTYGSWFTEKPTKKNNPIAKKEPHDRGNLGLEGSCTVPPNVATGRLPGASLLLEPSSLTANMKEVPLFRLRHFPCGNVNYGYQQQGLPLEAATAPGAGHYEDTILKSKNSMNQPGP
# Method: Cloning and Ba/F3 or NIH3T3 Stable Cell Line Creation
# The EML4-ALK gene (variant 1) was synthesized at GenScript and cloned into pCDH-CMV-MCS-EF1-Puro plasmid (System Biosciences, Inc). Ba/F3-EML4-ALK wild type were generated by transducing Ba/F3 cells with lentivirus containing EML4-ALK wide type. Stable cell lines were selected by puromycin treatment, followed by IL-3 withdrawal. Briefly, 5×10^6 Ba/F3 cells were transduced with lentivirus supernatant in the presence of 8 μg/mL protamine sulfate. The transduced cells were subsequently selected with 1 μg/mL puromycin in the presence of IL3-containing medium RPMI1640, plus 10% FBS. After 10-12 days of selection, the surviving cells were further selected for IL3 independent growth.
# (§1) Cell Proliferation Assays:
# (§2) Two thousand cells per well were seeded in 384 well white plate for 24 hrs, and then treated with compounds for 72 hours (37° C., 5% CO2). Cell proliferation was measured using CellTiter-Glo luciferase-based ATP detection assay (Promega) following the manufactures's protocol. IC50 determinations were performed using GraphPad Prism software (GraphPad, Inc., San Diego, Calif.).
# KG-1 cell (OP2-FGFR1) = details: Homo sapiens, anti-cell proliferation, 72 hours
# Method: (§3) Cell Lines and Cell Culture:
# (§4) Colorectal cell line KM 12 (harboring endogenous TPM3-TRKA fusion gene) was obtained from NCI. Acute myelogenous cell line KG-1 (harboring endogenous OP2-FGFR1 fusion gene) were purchased from ATCC.
# as §1, §2
# KM12 (TPM3-TRKA) = details: Homo sapiens, anti-cell proliferation, 72 hours
# Method: as §3, §4, §1, §2
SMILES,IC50 (BaF3 EML4-ALK) [nM],IC50 (KG-1 cell (OP2-FGFR1)) [nM],IC50 (KM12 (TPM3-TRKA)) [nM]
"C[C@H]1CNC(=O)c2cnn3cc4c(nc23)N(CCO4)Cc2c(ccc(F)c2Cl)O1 [Compound 1, (12S)-7-chloro-8-fluoro-12-methyl-3,4,13,14-tetrahydro-6H-18,1-(metheno)[1,4]oxazino[3,4-i]pyrazolo[4,3-f][1,4,8,10]benzoxatriazacyclotridecin-15(12H)-one]",969,1330,0.2
"C[C@H]1COc2cn3ncc4c3nc2N1Cc1cc(F)ccc1OCCNC4=O [Compound 2, (4S)-8-fluoro-4-methyl-3,4,13,14-tetrahydro-6H-18,1-(metheno)[1,4]oxazino[3,4-i]pyrazolo[4,3-f][1,4,8,10]benzoxatriazacyclotridecin-15(12H)-one]",> 10000,> 10000,26.7
"C[C@@H]1COc2cn3ncc4c3nc2N1Cc1cc(F)ccc1OCCNC4=O [Compound 3, (4R,12S)-8-fluoro-4,12-dimethyl-3,4,13,14-tetrahydro-6H-18,1-(metheno)[1,4]oxazino[3,4-i]-pyrazolo[4,3-f][1,4,8,10]benzo-xatriazacyclotridecin-15(12H)-one]",94.2,271,0.2
"C[C@H]1CNC(=O)c2cnn3cc4c(nc23)N(Cc2cc(F)ccc2O1)[C@@H](C)CO4 [Compound 4, (4S,12S)-8-fluoro-4,12-dimethyl-3,4,13,14-tetrahydro-6H-18,1-(metheno)[1,4]oxazino[3,4-i]pyrazolo[4,3-f][1,4,8,10]benzoxatriazacyclotridecin-15(12H)-one]",> 10000,> 10000,0.2
"CC[C@@H]1COc2cn3ncc4c3nc2N1Cc1cc(F)ccc1O[C@@H](C)CNC4=O [Compound 6, (4R,12S)-4-ethyl-8-fluoro-12-methyl-3,4,13,14-tetrahydro-6H-18,1-(metheno)[1,4]oxazino[3,4-i]pyrazolo[4,3-f][1,4,8,10]benzo-xatriazacyclotridecin-15(12H)-one]",20.6,234,0.2
"C[C@@H]1COc2ccc(F)cc2CN2c3nc4c(cnn4cc3OC[C@H]2C)C(=O)N1 [Compound 9, (4R,13R)-8-fluoro-4,13-dimethyl-3,4,13,14-tetrahydro-6H-18,1-(metheno)[1,4]oxazino[3,4-i]-pyrazolo[4,3-f][1,4,8,10]benzo-xatriazacyclotridecin-15(12H)-one]",11.7,111,0.2
"CC[C@@H]1COc2cn3ncc4c3nc2N1Cc1cc(F)ccc1OC[C@@H](C)NC4=O [Compound 13, (4R,13R)-4-ethyl-8-fluoro-13-methyl-3,4,13,14-tetrahydro-6H-18,1-(metheno)[1,4]oxazino[3,4-i]pyrazolo[4,3-f][1,4,8,10]benzo-xatriazacyclotridecin-15(12H)-one]",28,145,0.2
"C[C@@H]1COc2ncc(F)cc2CN2c3nc4c(cnn4cc3OC[C@H]2C)C(=O)N1 [Compound 14, (4R,13R)-8-fluoro-4,13-dimethyl-3,4,13,14-tetrahydro-6H-18,1-(metheno)[1,4]oxazino[3,4-i]pyrazolo[4,3-f]pyrido[3,2-l][1,4,8,10]oxatriazacyclotridecin-15(12H)-one]",13.9,33.6,< 0.2
"CC[C@@H]1COc2cn3ncc4c3nc2N1Cc1cc(F)cnc1OC[C@@H](C)NC4=O [Compound 15, (4R,13R)-4-ethyl-8-fluoro-13-methyl-3,4,13,14-tetrahydro-6H-18,1-(metheno)[1,4]oxazino[3,4-i]pyrazolo[4,3-f]pyrido[3,2-l] [1,4,8,10]oxatriazacyclotridecin-15(12H)-one]",14,25.2,< 0.2
"C[C@@H]1COc2c(F)cc(F)cc2CN2c3nc4c(cnn4cc3OC[C@H]2C)C(=O)N1 [Compound 16, (4R,13R)-8,10-difluoro-4,13-dimethyl-3,4,13,14-tetrahydro-6H-18,1-(metheno)[1,4]oxazino-[3,4-i]pyrazolo[4,3-f][1,4,8,10]-benzoxatriazacyclotridecin-15(12H)-one]",90.2,827,< 0.2
"C[C@H]1CNC(=O)c2cnn3cc4c(nc23)N(CCCO4)Cc2cc(F)ccc2O1 [Compound 17, (13S)-9-fluoro-13-methyl-4,5,14,15-tetrahydro-3H,7H-19,1-(metheno)[1,4]oxazepino-[3,4-i]pyrazolo[4,3-f][1,4,8,10]-benzoxatriazacyclotridecin-16(13H)-one]",2640,5000,< 0.2
"C[C@@H]1CCOc2cn3ncc4c3nc2N1Cc1cc(F)ccc1O[C@@H](C)CNC4=O [Compound 19, (5R,13S)-9-fluoro-5,13-dimethyl-4,5,14,15-tetrahydro-3H,7H-19,1-(metheno)[1,4]oxazepino[3,4-i]-pyrazolo[4,3-f][1,4,8,10]benzo-xatriazacyclotridecin-16(13H)-one]",6220,9950,< 0.2
"C[C@@H]1CCOc2cn3ncc4c3nc2N1Cc1cc(F)cnc1O[C@@H](C)CNC4=O [Compound 21, (5R,13S)-9-fluoro-5,13-dimethyl-4,5,14,15-tetrahydro-3H,7H-19,1-(metheno)[1,4]oxazepino[3,4-i]pyrazolo[4,3-f]pyrido[3,2-l][1,4,8,10]oxatriazacyclotridecin-16(13H)-one]",3000,1820,0.6
"C[C@@H]1COc2ncc(F)cc2CN2c3nc4c(cnn4cc3OCC[C@H]2C)C(=O)N1 [Compound 22, (5R,14R)-9-fluoro-5,14-dimethyl-4,5,14,15-tetrahydro-3H,7H-19,1-(metheno)[1,4]oxazepino[3,4-i]-pyrazolo[4,3-f]pyrido[3,2-l] [1,4,8,10]oxatriazacyclotridecin-16(13H)-one]",731,784,< 0.2

# Continued, in another order:
IC50 (BaF3 EML4-ALK) [nM],SMILES,IC50 (KG-1 cell (OP2-FGFR1)) [nM],IC50 (KM12 (TPM3-TRKA)) [nM]
37.7,"C[C@@H]1COc2cn3ncc4c3nc2N1Cc1cc(F)ccc1O[C@@H](C)CNC4=O [Compound 5, (4R,12S)-8-fluoro-4,12-dimethyl-3,4,13,14-tetrahydro-6H-18,1-(metheno)[1,4]oxazino[3,4-i]-pyrazolo[4,3-f][1,4,8,10]benzo-xatriazacyclotridecin-15(12H)-one]",194,0.2
101,"C[C@@H]1COc2cn3ncc4c3nc2N1Cc1cc(F)cnc1O[C@@H](C)CNC4=O [Compound 8, (4R,12S)-8-fluoro-4,12-dimethyl-3,4,13,14-tetrahydro-6H-18,1-(metheno)[1,4]oxazino[3,4-i]pyrazolo[4,3-f]pyrido[3,2-l][1,4,8,10]oxatriazacyclotridecin-15(12H)-one]",77.5,0.2
71.2,"CC[C@@H]1COc2cn3ncc4c3nc2N1Cc1cc(F)cnc1O[C@@H](C)CNC4=O [Compound 10, (4R,12S)-4-ethyl-8-fluoro-12-methyl-3,4,13,14-tetrahydro-6H-18,1-(metheno)[1,4]oxazino[3,4-i]pyrazolo[4,3-f]pyrido[3,2-l] [1,4,8,10]oxatriazacyclotridecin-15(12H)-one]",63.1,0.2
3170,"C[C@H]1CNC(=O)c2cnn3cc4c(nc23)N(Cc2cc(F)ccc2O1)[C@H](COCc1ccccc1)CO4 [Compound 11, (4R,12S)-4-[(benzyloxy)methyl)-8-fluoro-12-methyl-3,4,13,14-tetrahydro-6H-18,1-(metheno)-[1,4]oxazino[3,4-i]pyrazolo[4,3-f][1,4,8,10]benzoxatriazacyclo-tridecin-15(12H)-one]",4000,91.1
1460,"C[C@H]1CNC(=O)c2cnn3cc4c(nc23)N(Cc2cc(F)ccc2O1)[C@H](CO)CO4 [Compound 12, (4R,12S)-8-fluoro-4-(hydroxymethyl)-12-methyl-3,4,13,14-tetrahydro-6H-18,1-(metheno)[1,4]oxazino[3,4-i]pyrazolo[4,3-f][1,4,8,10]benzoxatriazacyclotridecin-15(12H)-one]",2000,0.8
> 10000,"C[C@H]1CNC(=O)c2cnn3cc4c(nc23)N(Cc2cc(F)ccc2O1)[C@@H](C)CCO4 [Compound 18, (5S,13S)-9-fluoro-5,13-dimethyl-4,5,14,15-tetrahydro-3H,7H-19,1-(metheno)[1,4]oxazepino[3,4-i]-pyrazolo[4,3-f][1,4,8,10]benzo-xatriaxacyclotridecin-16(13H)-one]",> 10000,< 0.2
4910,"C[C@@H]1COc2cn3ncc4c3nc2N(Cc2cc(F)ccc2O[C@@H](C)CNC4=O)C1 [Compound 20, (4S,13S)-9-fluoro-4,13-dimethyl-4,5,14,15-tetrahydro-3H,7H-19,1-(metheno)[1,4]oxazepino[3,4-i]-pyrazolo[4,3-f][1,4,8,10]benzo-xatriazacyclotridecin-16(13H)-one]",2420,5.1
